Six compounds from patent US11738065B2, “Polypeptides and analogues thereof for use in the treatment of diabetes and bone disorders” (UNIVERSITY OF ULSTER, priority 2015, dated 2023) can be followed below.

Where a SMILES comes first, the peptide text is derived from it. [ ]: non-standard residue; d: D form.

In one series the target is T1, DPP-4 (Sus scrofa, UniProt P22411).
T1 construct: purchased Sigma-Aldrich, Dorset, UK
Kind of series: DPP-4 degradation / in vitro DPP-4 half-life. The series is classed as in vitro ADME, porcine. Conditions: pig; 37° C., 50 mmol/L TEA-HCl pH 7.8, 5 mU purified porcine DPP-4, 0-12 h. As to the method:
(§1) For calculation of experimental molecular masses, peptide samples (1 μg) were mixed with α-cyano-4-hydroxycinnamic acid (1 μg) and applied to a Voyager-DE BioSpectrometry Workstation and mass-to-charge (m/z) ratio verses peak intensity recorded by MALDI-TOF mass spectrometry. […] Degradation profiles were obtained using rp-HPLC analysis and HPLC peak area data used to calculate percentage intact peptide remaining at each time point.
(§2) Briefly, polypeptides (20 μg) were incubated with 5 μl of purified DPP-4 (5 mU, Sigma-Aldrich, Dorset, UK) in 50 mM TEA-HCl (pH 7.8; final volume 450 μl) at 37° C. for 0, 1, 4 and 12 hours. Enzymatic reactions were terminated by the addition of 50 μl TFA/H2O (10% v/v, Sigma-Aldrich, Dorset, UK). Reaction products were then separated by HPLC and analysed using MALDI-TOF.

The target of another series is T2, purified porcine DPP-4 (Sus scrofa, UniProt P22411).
T2 construct: purchased Sigma-Aldrich, Dorset, UK
Kind of series: DPP-4 degradation / in vitro DPP-4 half-life. Type of series: in vitro ADME. The note with it: incubated in the presence of DPP-4 for up to 12 hs. The procedure:
as §1, §2

The next series deals with BRIN-BD11 cells. The series is described as follows: In vitro insulin secretion from BRIN-BD11 cells. The series is classed as cell-based. The note with it: 20 min; for Insulin secretion from BRIN-BD11 cells: 10^−6 mol/l peptide, vs 5.6 and 16.7 mmol/l glucose control. The procedure: BRIN-BD11 cells were used to assess the insulin releasing activity of polypeptides as described by […] et al., 1996 (Diabetes. 1996 August; 45(8):1132-40). Cells were cultured in RPMI-1640 growth media supplemented with 10% (v/v) foetal bovine serum (FBS) and 1% (v/v) antibiotics (penicillin (100 U/ml), streptomycin ([…])), in 75 cm2 sterile tissue culture flasks (Greiner bio-one, UK) maintained at 37° C. and 5% CO2 in a LEEC incubator (Laboratory technical engineering, Nottingham, UK). BRIN-BD11 cells were then seeded at a density of 150,000 cells/well in 24-well plates (Nunc, Roskilde, Denmark) and allowed to attach overnight at 37° C.

In series [1] the test system is lean control mice. The series is described as follows: Acute food intake in lean control mice. The series is classed as in vivo. The note with it: 250 nmol/kg i.p.
Experimental: Acute animal studies were conducted in male NIH Swiss mice (12-14 weeks old, Harlan Ltd, UK) maintained on a standard rodent maintenance diet (10% fat, 30% protein and 60% carbohydrate, Trouw Nutrition, Cheshire, UK). […] All animals were housed individually in an air-conditioned room at 22±2° C. with a 12 h light:12 h dark cycle and had free access to food and water. All animal experiments were carried out in accordance with the UK Animals (Scientific Procedures) Act 1986.
Series [2] has as its system lean control mice. The series is described as follows: Acute and persistent glucose lowering and insulin releasing effects in lean control mice. The series is classed as in vivo. The procedure:
All animal experiments were carried out in accordance with the UK Animals (Scientific Procedures) Act 1986. For food intake studies, fasted (18 h) mice were given intraperitoneal (i.p) injections of polypeptides at a dose of 25, 100 or 250 nmol/kg bw. Mice were then allowed free access to normal chow for 180 mins and cumulative food intake measured. […] Blood samples were collected from the cut tip on the tail vein of conscious mice into chilled fluoride/heparin glucose micro-centrifuge tubes (Sarstedt, Numbrecht, Germany) at the time points indicated in the Drawings. Blood glucose was measured directly using a hand-held Ascencia Contour blood glucose meter (Bayer Healthcare, Newbury, Berkshire, UK).

T1 sequence (P22411 whole entry): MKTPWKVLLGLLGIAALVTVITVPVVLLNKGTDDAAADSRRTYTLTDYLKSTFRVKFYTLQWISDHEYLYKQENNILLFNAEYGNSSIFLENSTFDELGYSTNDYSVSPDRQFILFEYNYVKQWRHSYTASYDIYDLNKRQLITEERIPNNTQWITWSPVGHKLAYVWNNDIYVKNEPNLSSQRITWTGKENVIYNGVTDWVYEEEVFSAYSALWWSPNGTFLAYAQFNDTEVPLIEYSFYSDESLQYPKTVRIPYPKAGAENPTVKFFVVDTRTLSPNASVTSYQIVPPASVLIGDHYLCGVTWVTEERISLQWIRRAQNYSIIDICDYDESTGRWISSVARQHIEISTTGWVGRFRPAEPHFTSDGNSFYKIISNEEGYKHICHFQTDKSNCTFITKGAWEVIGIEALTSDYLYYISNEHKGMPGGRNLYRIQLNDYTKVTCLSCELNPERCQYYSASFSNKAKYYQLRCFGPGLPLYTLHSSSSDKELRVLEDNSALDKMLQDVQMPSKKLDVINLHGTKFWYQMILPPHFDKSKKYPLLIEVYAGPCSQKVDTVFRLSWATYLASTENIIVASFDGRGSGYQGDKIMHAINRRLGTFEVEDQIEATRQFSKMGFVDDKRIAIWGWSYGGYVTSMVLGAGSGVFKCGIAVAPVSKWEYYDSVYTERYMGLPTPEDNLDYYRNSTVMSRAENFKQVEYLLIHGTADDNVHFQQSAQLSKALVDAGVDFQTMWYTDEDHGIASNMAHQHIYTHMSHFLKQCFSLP
T2 sequence (P22411 whole entry): as above

At DPP-4, `CC[C@H](C)[C@H](NC(=O)[C@H](CO)NC(=O)[C@H](Cc1ccc(O)cc1)NC(=O)[C@H](CC(=O)O)NC(=O)[C@H](CO)NC(=O)[C@@H](NC(=O)[C@H](Cc1ccccc1)NC(=O)[C@@H](NC(=O)CNC(=O)[C@H](CCC(=O)O)NC(=O)[C@@H](C)NC(=O)[C@@H](N)Cc1ccc(O)cc1)[C@@H](C)O)[C@@H](C)CC)C(=O)N[C@@H](C)C(=O)N[C@@H](CCSC)C(=O)N[C@@H](Cc1c[nH]cn1)C(=O)N1CCC[C@H]1C(=O)N[C@@H](CCC(N)=O)C(=O)N[C@@H](CCC(N)=O)C(=O)N1CCC[C@H]1C(=O)N[C@@H](Cc1c[nH]c2ccccc12)C(=O)N[C@H](C(=O)N[C@@H](CC(C)C)C(=O)O)[C@@H](C)CC` [(DAla2)GIP/xenin-8-Gln, TYR-(d)ALA-GLU-GLY-THR-PHE-ILE-SER-ASP-TYR-SER-ILE-ALA-MET-HIS-PRO-GLN-GLN-PRO-TRP-ILE-LEU] (H-Y[dA]EGTFISDYSIAMHPQQPWIL-OH; N-terminus and C-terminus assumed) displayed a half-life at 44.4 µg/mL of more than 12 h. Besides, the “Intactness on incubation with DPP-4” value at purified porcine DPP-4 was “remained fully intact”.

On DPP-4, `CC[C@H](C)[C@H](NC(=O)[C@H](CO)NC(=O)[C@H](Cc1ccc(O)cc1)NC(=O)[C@H](CC(=O)O)NC(=O)[C@H](CO)NC(=O)[C@@H](NC(=O)[C@H](Cc1ccccc1)NC(=O)[C@@H](NC(=O)CNC(=O)[C@H](CCC(=O)O)NC(=O)[C@H](C)NC(=O)[C@@H](N)Cc1ccc(O)cc1)[C@@H](C)O)[C@@H](C)CC)C(=O)N[C@@H](C)C(=O)N[C@@H](CCSC)C(=O)N[C@@H](CC(=O)O)C(=O)N[C@@H](CCCCN)C(=O)N[C@H](C(=O)N[C@@H](Cc1c[nH]cn1)C(=O)N[C@@H](CCC(N)=O)C(=O)N[C@@H](CCC(N)=O)C(=O)N[C@@H](CC(=O)O)C(=O)N[C@@H](Cc1ccccc1)C(=O)N[C@H](C(=O)N[C@@H](CC(N)=O)C(=O)N[C@@H](Cc1c[nH]c2ccccc12)C(=O)N[C@@H](CC(C)C)C(=O)N[C@@H](CC(C)C)C(=O)N[C@@H](C)C(=O)N[C@@H](CCC(N)=O)C(=O)N[C@@H](CCCCN)C(=O)NCC(=O)N[C@@H](CCCCN)C(=O)N[C@@H](CCCCN)C(=O)N[C@@H](CC(N)=O)C(=O)N[C@@H](CC(=O)O)C(=O)N[C@@H](Cc1c[nH]c2ccccc12)C(=O)N[C@@H](CCCCN)C(=O)N[C@@H](Cc1c[nH]cn1)C(=O)N[C@@H](CC(N)=O)C(=O)N[C@H](C(=O)N[C@H](C(=O)N[C@@H](CCC(N)=O)C(=O)O)[C@@H](C)O)[C@@H](C)CC)C(C)C)[C@@H](C)CC` [Native GIP, reference compound] showed a half-life at 44.4 µg/mL of less than 1 h.

For the compound “HIS-PRO-GLN-GLN-PRO-TRP-ILE-LEU (HPQQPWIL; listed as Homo sapiens) [xenin-8-Gln]”, the “Insulin secretion from BRIN-BD11 cells” value with BRIN-BD11 cells is recorded as “significantly (P<0.05 to P<0.001) stimulated insulin secretion”. In addition, the “Cumulative food intake at 120 min post-injection” value in the series on lean control mice [1] is recorded as “significant (P<0.05) reductions in cumulative food intake”. In the series with lean control mice [2] (25 nmol/kg 4 h before glucose 18 mmol/kg), the “Glucose lowering or insulin releasing effects, peptide 4 h prior to glucose load” value was “devoid of any beneficial glucose lowering or insulin releasing effects”. Moreover, the “Blood glucose at 30 min post injection” value in the series on lean control mice [2] (25 nmol/kg with glucose 18 mmol/kg i.p., non-fasted mice, vs glucose alone) is “significantly (P<0.05) lowered blood glucose values”. Besides, in the series on lean control mice [2] (25 nmol/kg with glucose 18 mmol/kg i.p., vs glucose alone), the “Overall 0-105 min AUC blood glucose” value is listed as “significantly (P<0.05) decreased”.

For the compound “HIS-PRO-GLN-GLN-PRO-TRP-ILE-LEU-GLY-ALA-ALA-GLU-GLU-GLU-GLU-GLU-GLU (HPQQPWILGAAEEEEEE; listed as Homo sapiens) [GIP(L-Glu)]”, the “Insulin secretory effect in BRIN BD11 beta-cells of C-terminally modified peptide” value in the series on BRIN-BD11 cells (10^−12-10^−6 M, vs 5.6 mM glucose alone) is listed as “does not hinder biological activity at the cellular level”.

Regarding “HIS-PRO-LYS-ARG-PRO-TRP-ILE-LEU (HPKRPWIL; listed as Homo sapiens) [xenin-8, reference compound]”, in the series with BRIN-BD11 cells, the “Insulin secretion from BRIN-BD11 cells” value is given as “significantly (P<0.05 to P<0.001) stimulated insulin secretion”.

Turning to “MET-LEU-THR-LYS-PHE-GLU-THR-LYS-SER-ALA-ARG-VAL-LYS-GLY-LEU-SER-PHE-HIS-PRO-LYS-ARG-PRO-TRP-ILE-LEU (MLTKFETKSARVKGLSFHPKRPWIL; listed as Homo sapiens) [xenin, reference compound]”, the “Insulin secretion from BRIN-BD11 cells” value with BRIN-BD11 cells was “significantly (P<0.05 to P<0.001) stimulated insulin secretion”. In addition, the “Appetite suppressive effect at 90 min post-injection” value in the series on lean control mice [1] (vs control) is “significantly (P<0.05) superior to control mice”.

The half-life is the time needed for the level to fall by half in the phase considered.
